Active and inactive are the calls of the source. No cut-off for these calls is given here.
Experiments:
[1] = Half life in mouse liver microsomes at 1 uM in presence of NADPH by LC-MS/MS analysis; format: ADME, microsome
[2] = target: T1, Nuclear receptor ROR-alpha (Homo sapiens) (UniProt P35398); assay: Inverse agonist activity at GAL4-DNA binding domain-fused human RORalpha ligand binding domain expressed in HEK293T cells incubated for 20 hrs by luciferase reporter gene assay; format: cell-based
T1 sequence (whole entry): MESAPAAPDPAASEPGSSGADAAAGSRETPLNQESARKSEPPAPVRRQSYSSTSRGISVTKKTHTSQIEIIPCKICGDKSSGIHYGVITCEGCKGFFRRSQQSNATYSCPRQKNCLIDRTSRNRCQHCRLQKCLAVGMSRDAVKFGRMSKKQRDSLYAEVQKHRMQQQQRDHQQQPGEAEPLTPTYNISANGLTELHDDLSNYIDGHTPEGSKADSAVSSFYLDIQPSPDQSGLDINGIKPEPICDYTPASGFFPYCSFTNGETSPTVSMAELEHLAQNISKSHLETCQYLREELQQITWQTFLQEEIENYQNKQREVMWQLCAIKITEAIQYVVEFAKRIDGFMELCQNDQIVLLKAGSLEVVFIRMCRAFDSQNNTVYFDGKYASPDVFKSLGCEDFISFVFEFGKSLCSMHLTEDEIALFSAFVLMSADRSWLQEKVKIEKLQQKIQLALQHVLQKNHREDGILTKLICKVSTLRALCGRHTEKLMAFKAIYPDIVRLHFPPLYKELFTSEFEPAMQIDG

[3] = target: T2, Nuclear receptor ROR-gamma (Homo sapiens, UniProt P51449)
T2 sequence (P51449 whole entry): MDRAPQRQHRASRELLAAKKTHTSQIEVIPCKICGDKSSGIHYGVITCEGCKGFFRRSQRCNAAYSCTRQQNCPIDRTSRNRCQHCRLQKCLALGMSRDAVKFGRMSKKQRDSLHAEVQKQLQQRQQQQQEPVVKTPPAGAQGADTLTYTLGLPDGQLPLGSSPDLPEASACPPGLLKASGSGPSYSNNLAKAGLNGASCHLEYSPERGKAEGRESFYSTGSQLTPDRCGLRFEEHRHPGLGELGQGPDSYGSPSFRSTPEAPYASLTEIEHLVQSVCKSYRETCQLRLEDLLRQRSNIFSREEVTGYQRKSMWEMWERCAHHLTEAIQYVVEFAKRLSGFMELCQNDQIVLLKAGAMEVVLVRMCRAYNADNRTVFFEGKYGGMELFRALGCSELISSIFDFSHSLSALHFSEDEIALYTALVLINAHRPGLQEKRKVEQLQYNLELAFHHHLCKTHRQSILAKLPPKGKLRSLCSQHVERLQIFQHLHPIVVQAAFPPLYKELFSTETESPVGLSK

[4] = test system: HEK-293T; assay: Toxicity in HEK293T cells at 10 uM; format: cell-based; settings: human

| SMILES | t1/2 [1] | Activity [2] | IC50 [3] | Activity [4] |
| --- | --- | --- | --- | --- |
| Nc1nc(-c2cc(Cl)cc(C(F)(F)F)c2)c(C(=O)c2ccccc2Cl)s1 | 6.1 min | – | – | – |
| Nc1nc(-c2cccc(C(F)(F)F)c2)c(C(=O)c2ccccc2Cl)s1 | 2.9 min | – | – | – |
| Nc1nc(-c2cc(Br)cc(C(F)(F)F)c2)c(C(=O)c2ccccc2Cl)s1 | 5.2 min | inactive | > 40 µM | Non-Toxic |
| Nc1nc(-c2ccc(Br)c(C(F)(F)F)c2)c(C(=O)c2ccccc2Cl)s1 | 2.5 min | – | – | – |
| Nc1nc(-c2ccc(Cl)c(C(F)(F)F)c2)c(C(=O)c2ccccc2Cl)s1 | – | – | > 40 µM | – |
| COc1ccccc1C(=O)c1sc(N)nc1-c1cc(C(F)(F)F)cc(C(F)(F)F)c1 | 5.2 min | – | – | – |
| Nc1nc(-c2cccc(C(F)(F)F)c2)c(C(=O)c2c(F)cccc2Cl)s1 | 2.7 min | – | > 40 µM | – |
| COc1ccccc1C(=O)c1sc(N)nc1-c1ccc(Cl)c(C(F)(F)F)c1 | – | inactive | > 40 µM | Non-Toxic |
| COc1ccccc1C(=O)c1sc(N)nc1-c1cc(Br)cc(C(F)(F)F)c1 | 2.3 min | inactive | – | Non-Toxic |
| Nc1nc(-c2cccc(Cl)c2)c(C(=O)c2ccccc2Cl)s1 | 1.9 min | inactive | – | Non-Toxic |
| CCS(=O)(=O)c1ccc(CC(=O)Nc2nc(-c3ccccc3Cl)c(C(=O)c3ccccc3Cl)s2)cc1 | 34 min | – | – | Non-Toxic |
| COc1ccccc1C(=O)c1sc(N)nc1-c1cccc(C(F)(F)F)c1 | – | – | > 40 µM | – |
| Nc1nc(-c2cccc(C(F)(F)F)c2)c(C(=O)c2ccccc2Br)s1 | – | – | > 40 µM | – |
| Nc1nc(-c2cccc(C(F)(F)F)c2)c(C(=O)c2ccccc2C(F)(F)F)s1 | – | – | > 40 µM | – |
| Nc1nc(-c2cc(C(F)(F)F)cc(C(F)(F)F)c2)c(C(=O)c2ccccc2Cl)s1 | 7.4 min | – | – | – |
| Nc1nc(-c2cccc(C(F)(F)F)c2)c(C(=O)c2c(F)cccc2C(F)(F)F)s1 | – | – | > 40 µM | – |

From ChEMBL document CHEMBL4219141, “Identification of an aminothiazole series of RORβ modulators” (Bioorg Med Chem Lett, 2018)
